System: ERISU (Conyza sumatrensis, Sumatran fleabane)
Assay: Greenhouse post-emergence foliar weed control trial, visual injury score 0-100 percent
Format: in vivo
Conditions: 400 gai/ha
Source text: Results in Examples are greenhouse trial results.
Seeds or nutlets of the desired test plant species were planted in a soil matrix prepared by mixing a loam or sandy loam soil (e.g., 28.6 percent silt, 18.8 percent clay, and 52.6 percent sand, with a pH of about 5.8 and an organic matter content of about 1.8 percent) and calcareous grit in an 80 to 20 ratio. The soil matrix was contained in plastic pots with a volume of 1 quart and a surface area of 83.6 cm2. When required to ensure good germination and healthy plants, a fungicide treatment and/or other chemical or physical treatment was applied. The plants were grown for 8-22 days in a greenhouse with an approximate 14 h photoperiod which was maintained at about 29° C. during the day and 26° C. during the night. Nutrients (Peters Excel® 15-5-155-Ca 2-Mg and iron chelate) were applied in the irrigation solution as needed and water was added on a regular basis. Supplemental lighting was provided with overhead metal halide 1000-Watt lamps as necessary. The plants were employed for testing when they reached the first through fourth true leaf stage.
Treatments comprised of the acid or esters of halauxifen-methyl (methyl 4-amino-3-chloro-6-(4-chloro-2-fluoro-3-methoxyphenyl)picolinate), each formulated as an SC (suspension concentrate), and various herbicidal components alone and in combination. A form of the compound of Formula I were applied on an acid equivalent basis.
Treatment requirements were calculated based upon the rates being tested, the concentration of active ingredient or acid equivalent in the formulation, and a 12 mL application volume at a rate of 187 L/ha.
For treatments comprised of formulated and technical compounds, weighed amounts of the technical materials were placed individually in 25 mL glass vials and dissolved in a volume of 97:3 v/v acetone/DMSO to obtain 12× stock solutions, and measured amounts of the formulated compounds were placed individually in 25 mL glass vials and diluted in a volume of 1.5% (v/v) crop oil concentrate or water to obtain 12× stock solutions. […] As required, additional water and/or 97:3 v/v acetone/DMSO was added to individual application solutions so that the final acetone and DMSO concentrations of the application solutions being compared were 8.1% and 0.25%, respectively.
All stock solutions and applications solutions were visually inspected for compound compatibility prior to application. Spray solutions were applied to the plant material with an overhead Mandel track sprayer equipped with an 8002E nozzle calibrated to deliver 187 L/ha over an application area of 0.503 m2 at a spray height of 18 to 20 inches (46 to 50 cm) above average plant canopy height. Control plants were sprayed in the same manner with the solvent blank.
The treated plants and control plants were placed in a greenhouse as described above and watered by sub-irrigation to prevent wash-off of the test compounds. […]
Table 1 illustrates weed control for foliar applications of compositions comprising halauxifen-methyl+2,4-D-dimethylammonium (2,4-D-DMA)+paraquat on various broadleaf weeds. […] The compositions disclosed herein can be used in burndown and fallow crop applications or in herbicide tolerant crops. These compositions can be used for broad-spectrum control of broadleaf weeds including, but not limited to, ALS, auxinic, HPPD, PPO, glufosinate and glyphosate resistant broadleaf weeds. The compositions disclosed herein can have utility in AAD1 and AAD12 monocot and dicot crops whereby there is crop tolerance to all 3 modes of action, providing growers with a solution to control susceptible and resistant broadleaf weeds, as well as to delay the development of resistance by the use of 3 modes of action product. The compositions disclosed herein can be used in non-crop and R&P/IVM situations, post directed in perennial crops, and potentially across many crops where there is tolerance to all 3 modes of action.

SMILES: C[n+]1ccc(-c2cc[n+](C)cc2)cc1 [paraquat, 1-methyl-4-(1-methylpyridin-1-ium-4-yl)pyridin-1-ium]
- Chem 2 Actual Mean % Weed Control (Trial 1, 17DAA): 32.50%
- Chem 2 Actual Mean % Weed Control (Trial 1, 28DAA): 52.50%
- Chem 2 Actual Mean % Weed Control (Trial 1, 43DAA): 60.00%
- Chem 2 Actual Mean % Weed Control (Trial 2, 17DAA): 52.50%
- Chem 2 Actual Mean % Weed Control (Trial 2, 28DAA): 55.00%
- Chem 2 Actual Mean % Weed Control (Trial 2, 43DAA): 65.00%

Source: patent US20220015362A1, “COMPOSITIONS COMPRISING HALAUXIFEN AND OTHER HERBICIDES AND METHODS THEREOF” (DOW AGROSCIENCES LLC, priority 2018, published 2022)
